Experimental data taken from the supplement of paper PMC10307832.

Columns and labels:
Assay in all cases: relative viability (nuclei count vs DMSO), 5 days (fraction); higher = more cells survive
XMD8-85 + Lapatinib = compound: CN1CCN(CC1)C2=CC(=C(C=C2)NC3=NC=C4C(=N3)N(C5=CC=CC=C5C(=O)N4C)C)OC [XMD8-85] + CS(=O)(=O)CCNCc1ccc(-c2ccc3ncnc(Nc4ccc(OCc5cccc(F)c5)c(Cl)c4)c3c2)o1 [Lapatinib] (partner 2 µM)
Method in brief: (§1)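 Lung cancer cell lines, seeded in 1536-well plates, were treated the following day by pin tool with a single drug or with five library-drug doses (not always all listed) in √10 steps on top of a fixed anchor-drug dose. Cells were fixed and nuclei stained in one step after 5 days, and nuclei were counted. Relative viability is the nuclei count for treated wells divided by that for vehicle wells, reported as medians of duplicate plates.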

XMD8-85 + Linsitinib = compound: CN1CCN(CC1)C2=CC(=C(C=C2)NC3=NC=C4C(=N3)N(C5=CC=CC=C5C(=O)N4C)C)OC [XMD8-85] + C[C@]1(O)C[C@@H](c2nc(-c3ccc4ccc(-c5ccccc5)nc4c3)c3c(N)nccn32)C1 [Linsitinib] (partner 1 µM)
Method in brief: as §1

4EGI-1 + Bortezomib = compound: O=C(O)C(Cc1ccccc1[N+](=O)[O-])=NNc1nc(-c2ccc(Cl)c(Cl)c2)cs1 (mixture of isomers) [4EGI-1] + CC(C)C[C@H](NC(=O)[C@H](Cc1ccccc1)NC(=O)c1cnccn1)B(O)O [Bortezomib] (partner 0.002 µM)
Method in brief: as §1

4EGI-1 + Olaparib = compound: O=C(O)C(Cc1ccccc1[N+](=O)[O-])=NNc1nc(-c2ccc(Cl)c(Cl)c2)cs1 (mixture of isomers) [4EGI-1] + O=C(c1cc(Cc2n[nH]c(=O)c3ccccc23)ccc1F)N1CCN(C(=O)C2CC2)CC1 [Olaparib] (partner 8 µM)
Method in brief: as §1

## NCI-H1792
XMD8-85 + Lapatinib; first compound 0.08 µM
  relative viability: 0.893
XMD8-85 + Lapatinib; first compound 0.253 µM
  relative viability: 0.63
XMD8-85 + Lapatinib; first compound 2.53 µM
  relative viability: 0.675
XMD8-85 + Lapatinib; first compound 8 µM
  relative viability: 0.879
XMD8-85 + Linsitinib; first compound 0.08 µM
  relative viability: 0.47
XMD8-85 + Linsitinib; first compound 0.253 µM
  relative viability: 0.521
XMD8-85 + Linsitinib; first compound 2.53 µM
  relative viability: 0.463
XMD8-85 + Linsitinib; first compound 8 µM
  relative viability: 0.556
4EGI-1 + Bortezomib; first compound 0.5 µM
  relative viability: 0.916
4EGI-1 + Bortezomib; first compound 1.581 µM
  relative viability: 0.392
4EGI-1 + Bortezomib; first compound 5 µM
  relative viability: 0.933
4EGI-1 + Bortezomib; first compound 15.81 µM
  relative viability: 0.89
4EGI-1 + Bortezomib; first compound 50 µM
  relative viability: 0.904
4EGI-1 + Olaparib; first compound 0.5 µM
  relative viability: 0.412
4EGI-1 + Olaparib; first compound 1.581 µM
  relative viability: 0.496
4EGI-1 + Olaparib; first compound 5 µM
  relative viability: 0.359
4EGI-1 + Olaparib; first compound 15.81 µM
  relative viability: 0.36
4EGI-1 + Olaparib; first compound 50 µM
  relative viability: 0.165
